For this assay, the system named is whole blood. Put plainly: Calcium Gluconate (CG) Powder Test: coagulation of whole blood with varying CG amounts. The protocol:
A standard amount of ACD-A anticoagulant and Kaoiln powder per 1 ml of whole blood was used • 2 ml of ACD-A for 15 ml blood=0.133 ml ACD-A/1 ml blood • 28 mg Kaolin powder for 15 ml blood=1.87 mg Kaolin/1 ml blood
Different amounts of CG where tested-CG particle size after sifting is 125 micron • 20 mg for 15 ml of blood=1.33 mgCG/1 ml blood • 50 mg for 15 ml of blood=3.33 mgCG/1 ml blood • 85 mg for 15 ml of blood=5.66 mgCG/1 ml blood • 110 mg for 15 ml of blood=7.33 mgCG/1 ml blood • 140 mg for 15 ml of blood=9.33 mgCG/1 ml blood
Coagulation time and clot structure strength were documented. Blood samples of 5 different volunteers were used.

Where [1] appears, read: 20 mg CG for 15 ml blood, Average of 5 volunteers.
Setting [2] is: 50 mg CG for 15 ml blood, Average of 5 volunteers.
Where [3] appears, read: 85 mg CG for 15 ml blood, Average of 5 volunteers.
[4] abbreviates: 110 mg CG for 15 ml blood, Average of 5 volunteers.
[5] abbreviates: 140 mg CG for 15 ml blood, Average of 5 volunteers.

Where “and” joins values, the source holds several entries; their conditions need not be identical. Identical values can stand only once.

Regarding Calcium Gluconate [CG], the Coagulation time was 17 and 14 and 12 and 14.5 and 15 (20 mg CG for 15 ml blood, 2 ml ACD-A, 28 mg Kaolin, individual volunteers #1-#5, good time is under 6 minutes); 14.5 under setting [1]; 6.7 and 5.4 and 6 and 6.6 and 6.8 (50 mg CG for 15 ml blood, 2 ml ACD-A, 28 mg Kaolin, individual volunteers #1-#5, good time is under 6 minutes); 6.3 under setting [2]; 4.8 (2×) and 4.6 (2×) and 4.7 (85 mg CG for 15 ml blood, 2 ml ACD-A, 28 mg Kaolin, individual volunteers #1-#5, good time is under 6 minutes); 4.88 under setting [3]. The Coagulation time was 4.7 and 5.2 and 4.6 and 4.9 and 5 (110 mg CG for 15 ml blood, 2 ml ACD-A, 28 mg Kaolin, individual volunteers #1-#5, good time is under 6 minutes); 4.7 under setting [4]; 4.8 and 4.7 and 5 and 5.2 and 4.9 (140 mg CG for 15 ml blood, 2 ml ACD-A, 28 mg Kaolin, individual volunteers #1-#5, good time is under 6 minutes); 4.92 under setting [5]. For the same substance, the Clot strength entry under setting [1] is listed as “Low”; the Clot strength entry (20 mg CG for 15 ml blood, individual volunteers, visual) is listed as “Low”; the Clot strength result under setting [2] was “Medium”; the Clot strength entry (50 mg CG for 15 ml blood, individual volunteers, visual) is listed as “Medium”; the Clot strength result under setting [3] is recorded as “Strong”; the Clot strength entry (85 mg CG for 15 ml blood, individual volunteers, visual) is “Strong”. The Clot strength entry by setting is: under setting [4], “Strong”; (110 mg CG for 15 ml blood, individual volunteers, visual) “Strong”; under setting [5], “Strong”; (140 mg CG for 15 ml blood, individual volunteers, visual) “Strong”.

These data come from patent publication US12364713B2, “Coagulation mold, a kit and a method for preparing a coagulated blood mass” (Reddress Ltd., priority 2022, dated 2025).
